30 compounds from patent US9242970B2 (ACTELION PHARMACEUTICALS LTD., priority 2010, dated 2016) can be followed below.

In general, pIC50 refers to the negative decadic logarithm of the IC50, by convention in mol/L.

pIC50: −log10 of the molar value. Like-named read-outs stand apart in the source and are kept apart here.

The target of one experiment is human orexin-1 receptor (Homo sapiens (Human), UniProt O43613). Description: In vitro assay: intracellular calcium measurements (FLIPR), antagonistic activity. Particulars: CHO cells, 3 nM orexin-A, marked values are geometric means of n = 2-6, read-out: IC50 OX1. In kind it is cell-based. How it is done:
(§1) In Vitro Assay: Intracellular Calcium Measurements:
(§2) Chinese hamster ovary (CHO) cells expressing the human orexin-1 receptor and the human orexin-2 receptor, respectively, are grown in culture medium (Ham F-12 with L-Glutamine) containing 300 µg/ml G418, 100 U/ml penicillin, 100 µg/ml streptomycin and 10% heat inactivated fetal calf serum (FCS). The cells are seeded at 20,000 cells/well into 384-well black clear bottom sterile plates (Greiner). The seeded plates are incubated overnight at 37° C. in 5% CO2.
(§3) Fluorescence is measured for each well at 1 second intervals, and the height of each fluorescence peak is compared to the height of the fluorescence peak induced by 3 nM orexin-A with vehicle in place of antagonist. […] Optimized conditions were achieved by adjustment of pipetting speed and cell splitting regime. The calculated IC50 values may fluctuate depending on the daily cellular assay performance. Fluctuations of this kind are known to those skilled in the art.

The next experiment deals with human orexin-2 receptor (Homo sapiens (Human), UniProt O43614). Described as above. The settings on record: CHO cells, 3 nM orexin-A, compound incubation 120 min; marked values are geometric means of n = 2-6; read-out: IC50 OX2. In kind it is cell-based. How it is done: as §1, §2, §3
Chain of human orexin-2 receptor (O43614 whole entry): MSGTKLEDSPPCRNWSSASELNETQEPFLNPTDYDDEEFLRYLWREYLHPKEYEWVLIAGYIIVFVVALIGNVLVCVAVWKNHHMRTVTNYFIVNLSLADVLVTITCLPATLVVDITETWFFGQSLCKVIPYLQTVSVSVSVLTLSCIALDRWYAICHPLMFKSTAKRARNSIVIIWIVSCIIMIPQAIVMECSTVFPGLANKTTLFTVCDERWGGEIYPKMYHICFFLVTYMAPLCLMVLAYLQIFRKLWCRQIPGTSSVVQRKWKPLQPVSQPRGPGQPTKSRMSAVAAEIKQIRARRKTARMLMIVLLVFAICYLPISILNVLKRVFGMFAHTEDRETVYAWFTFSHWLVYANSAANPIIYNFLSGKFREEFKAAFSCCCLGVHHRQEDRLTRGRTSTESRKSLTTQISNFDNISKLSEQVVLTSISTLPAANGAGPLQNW
The mark [1] stands for this setting: compound incubation time of 10 min.

Chain of human orexin-1 receptor (O43613 whole entry): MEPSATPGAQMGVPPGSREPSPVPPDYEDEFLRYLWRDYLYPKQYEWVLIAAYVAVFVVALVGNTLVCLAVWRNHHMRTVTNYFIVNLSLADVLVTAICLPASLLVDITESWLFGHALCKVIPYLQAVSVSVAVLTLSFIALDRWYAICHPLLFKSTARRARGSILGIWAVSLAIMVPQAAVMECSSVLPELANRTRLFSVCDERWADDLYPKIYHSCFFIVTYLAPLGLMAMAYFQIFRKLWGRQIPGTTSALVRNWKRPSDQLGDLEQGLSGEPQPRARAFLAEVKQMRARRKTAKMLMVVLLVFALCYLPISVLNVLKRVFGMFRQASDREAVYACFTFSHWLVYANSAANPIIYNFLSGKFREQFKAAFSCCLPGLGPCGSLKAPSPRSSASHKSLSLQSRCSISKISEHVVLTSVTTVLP

On to `COc1cccc(F)c1[C@@H]1C[C@H](O)C(=O)N1Cc1ccc(OC(F)(F)F)cc1` (racemic) [Example 265, rac-(3S*,5S*)-5-(2-fluoro-6-methoxyphenyl)-3-hydroxy-1-(4-(trifluoromethoxy)benzyl)pyrrolidin-2-one], for which the pIC50 on human orexin-1 receptor (setting [1]) is 6.14.
As to `COc1cccc(F)c1[C@@H]1C[C@@H](O)C(=O)N1Cc1ccc(OC(F)(F)F)cc1` (racemic) [Example 293, rac-(3R*,5S*)-5-(2-fluoro-6-methoxyphenyl)-3-hydroxy-1-(4-(trifluoromethoxy)benzyl)pyrrolidin-2-one], the pIC50 at human orexin-1 receptor (compound incubation 120 min) is 5.56.
Take `COc1cccc(Cl)c1[C@@H]1C[C@@H](O)C(=O)N1Cc1ccc(OC(F)(F)F)cc1` (racemic) [Example 294, rac-(3R*,5S*)-5-(2-chloro-6-methoxyphenyl)-3-hydroxy-1-(4-(trifluoromethoxy)benzyl)pyrrolidin-2-one]: the pIC50 on human orexin-1 receptor (compound incubation 120 min) was 5.61.
Consider `COc1cc(F)ccc1[C@@H]1C[C@@H](O)C(=O)N1Cc1ccc(OC(F)(F)F)cc1` (racemic) [Example 296, rac-(3R*,5S*)-5-(4-fluoro-2-methoxyphenyl)-3-hydroxy-1-(4-(trifluoromethoxy)benzyl)pyrrolidin-2-one], for which the pIC50 at human orexin-2 receptor is 5.66.
Same read-out and setting: next, `CCOc1ccccc1[C@@H]1C[C@H](F)C(=O)N1Cc1ccc(OC(F)(F)F)cc1` (racemic) [Example 300, rac-(3S*,5S*)-5-(2-ethoxyphenyl)-3-fluoro-1-(4-(trifluoromethoxy)benzyl)pyrrolidin-2-one]: 7.01.
As for `O=C1[C@@H](Cl)C[C@@H](c2cccc3c2OCCO3)N1Cc1ccc(OC(F)(F)F)cc1` (racemic) [Example 307, rac-(3S*,5S*)-3-chloro-5-(2,3-dihydrobenzo[b][1,4]dioxin-5-yl)-1-(4-(trifluoromethoxy)benzyl)pyrrolidin-2-one], the negative logarithm of the IC50 (pIC50) at human orexin-1 receptor (compound incubation 120 min) is 6.25.
Turning to `COc1ccc2ccccc2c1[C@@H]1C[C@H](F)C(=O)N1Cc1ccc(OC(F)(F)F)cc1` (racemic) [Example 315, rac-(3S*,5S*)-3-fluoro-5-(2-methoxynaphthalen-1-yl)-1-(4-(trifluoromethoxy)benzyl)pyrrolidin-2-one], on human orexin-1 receptor (compound incubation 120 min), the pIC50 is 5.92.
On the same count and under the same terms, for `COc1c(F)ccc(F)c1[C@@H]1C[C@@H](Cl)C(=O)N1Cc1ccc(OC(F)(F)F)cc1` (racemic) [Example 317, rac-(3R*,5S*)-3-chloro-5-(3,6-difluoro-2-methoxyphenyl)-1-(4-(trifluoromethoxy)benzyl)pyrrolidin-2-one] the value was 5.97; for `COc1c(F)ccc(F)c1[C@@H]1C[C@H](Cl)C(=O)N1Cc1ccc(OC(F)(F)F)cc1` (racemic) [Example 320, rac-(3S*,5S*)-3-chloro-5-(3,6-difluoro-2-methoxyphenyl)-1-(4-(trifluoromethoxy)benzyl)pyrrolidin-2-one], 5.98.
Still for that read-out and setting: next, `O=C1[C@H](Cl)C[C@@H](c2cccc3c2OCCO3)N1Cc1ccc(OC(F)(F)F)cc1` (racemic) [Example 322, rac-(3R*,5S*)-3-chloro-5-(2,3-dihydrobenzo[b][1,4]dioxin-5-yl)-1-(4-(trifluoromethoxy)benzyl)pyrrolidin-2-one]: 5.97.
Same read-out and setting: for `COc1cccc(C)c1[C@@H]1C[C@H](F)C(=O)N1Cc1ccc(OC(F)(F)F)cc1` (racemic) [Example 325, rac-(3S*,5S*)-3-fluoro-5-(2-methoxy-6-methylphenyl)-1-(4-(trifluoromethoxy)benzyl)pyrrolidin-2-one] the value was 5.86; for `CCOc1c(F)cccc1[C@@H]1C[C@@H](Cl)C(=O)N1Cc1ccc(OC(F)(F)F)cc1` (racemic) [Example 327, rac-(3R*,5S*)-3-chloro-5-(2-ethoxy-3-fluorophenyl)-1-(4-(trifluoromethoxy)benzyl)pyrrolidin-2-one], 5.97; for `COc1ccc(F)c(OC)c1[C@@H]1C[C@@H](Cl)C(=O)N1Cc1ccc(OC(F)(F)F)cc1` (racemic) [Example 328, rac-(3R*,5S*)-3-chloro-5-(3-fluoro-2,6-dimethoxyphenyl)-1-(4-(trifluoromethoxy)benzyl)pyrrolidin-2-one], 6.13.
Regarding `CCOc1c(F)cccc1[C@@H]1C[C@H](Cl)C(=O)N1Cc1ccc(OC(F)(F)F)cc1` (racemic) [Example 329, rac-(3S*,5S*)-3-chloro-5-(2-ethoxy-3-fluorophenyl)-1-(4-(trifluoromethoxy)benzyl)pyrrolidin-2-one], the pIC50 at human orexin-1 receptor (compound incubation 120 min) is 6.05.
The same measure, in the same setting: next, `COc1ccc(F)c(OC)c1[C@@H]1C[C@H](Cl)C(=O)N1Cc1ccc(OC(F)(F)F)cc1` (racemic) [Example 330, rac-(3S*,5S*)-3-chloro-5-(3-fluoro-2,6-dimethoxyphenyl)-1-(4-(trifluoromethoxy)benzyl)pyrrolidin-2-one]: 6.64; `CCOc1ccc(F)c(F)c1[C@@H]1C[C@H](Cl)C(=O)N1Cc1ccc(OC(F)(F)F)cc1` (racemic) [Example 339, rac-(3S*,5S*)-3-chloro-5-(6-ethoxy-2,3-difluorophenyl)-1-(4-(trifluoromethoxy)benzyl)pyrrolidin-2-one]: 6.09.
The same measure, in the same setting: next, `CCOc1cc(F)ccc1[C@@H]1C[C@H](F)C(=O)N1Cc1ccc(OC(F)(F)F)cc1` (racemic) [Example 344, rac-(3S*,5S*)-5-(2-ethoxy-4-fluorophenyl)-3-fluoro-1-(4-(trifluoromethoxy)benzyl)pyrrolidin-2-one]: 5.74; `CCOc1ccc(F)c(F)c1[C@@H]1C[C@@H](Cl)C(=O)N1Cc1ccc(OC(F)(F)F)cc1` (racemic) [Example 346, rac-(3R*,5S*)-3-chloro-5-(6-ethoxy-2,3-difluorophenyl)-1-(4-(trifluoromethoxy)benzyl)pyrrolidin-2-one]: 5.55.
Take `COc1cccc(OC)c1[C@@H]1C[C@@H](F)C(=O)N1Cc1ccc2oc3ccccc3c2c1` (racemic) [Example 368, rac-(3R*,5S*)-1-(dibenzo[b,d]furan-2-ylmethyl)-5-(2,6-dimethoxyphenyl)-3-fluoropyrrolidin-2-one]: the pIC50 at human orexin-1 receptor (compound incubation 120 min) was 7.64.
Turning to `CC(C)Oc1cccc(F)c1[C@@H]1C[C@H](F)C(=O)N1Cc1ccc(OC(F)(F)F)cc1` (racemic) [Example 407, rac-(3S*,5S*)-3-fluoro-5-(2-fluoro-6-isopropoxyphenyl)-1-(4-(trifluoromethoxy)benzyl)pyrrolidin-2-one], the pIC50 on human orexin-1 receptor (compound incubation 120 min) was 6.17.
`CC(C)Oc1cccc(F)c1[C@@H]1C[C@H](Cl)C(=O)N1Cc1ccc(OC(F)(F)F)cc1` (racemic) [Example 409, rac-(3S*,5S*)-3-chloro-5-(2-fluoro-6-isopropoxyphenyl)-1-(4-(trifluoromethoxy)benzyl)pyrrolidin-2-one]: the pIC50 at human orexin-1 receptor (compound incubation 120 min) is 6.49.
The same measure, in the same setting: next, `CCOc1cccc(Cl)c1[C@@H]1C[C@@H](O)C(=O)N1Cc1ccc(OC(F)(F)F)cc1` (racemic) [Example 427, rac-(3R*,5S*)-5-(2-chloro-6-ethoxyphenyl)-3-hydroxy-1-(4-(trifluoromethoxy)benzyl)pyrrolidin-2-one]: 5.91.
`COc1cccc(F)c1[C@@H]1C[C@@H](O)C(=O)N1Cc1cccc(OC(F)(F)F)c1` (racemic) [Example 430, rac-(3R*,5S*)-5-(2-fluoro-6-methoxyphenyl)-3-hydroxy-1-(3-(trifluoromethoxy)benzyl)pyrrolidin-2-one]: on human orexin-1 receptor (compound incubation 120 min), the pIC50 is 5.27.
Same read-out and setting: next, `CCOc1cccc(F)c1[C@@H]1C[C@H](F)C(=O)N1Cc1ccc(OC(F)(F)F)c(Cl)c1` (racemic) [Example 461, rac-(3S*,5S*)-1-(3-chloro-4-(trifluoromethoxy)benzyl)-5-(2-ethoxy-6-fluorophenyl)-3-fluoropyrrolidin-2-one]: 6.14; `CCOc1cccc(F)c1[C@@H]1C[C@H](Cl)C(=O)N1Cc1ccc(OC(F)(F)F)c(Cl)c1` (racemic) [Example 462, rac-(3S*,5S*)-3-chloro-1-(3-chloro-4-(trifluoromethoxy)benzyl)-5-(2-ethoxy-6-fluorophenyl)pyrrolidin-2-one]: 6.39.
The same measure, in the same setting: next, `COc1cccc(OC)c1C1CCCC(=O)N1Cc1ccc2ccccc2n1` (stereo not drawn) [Example 4, 6-(2,6-dimethoxyphenyl)-1-(quinolin-2-ylmethyl)piperidin-2-one]: 6.76; `COc1cccc(OC)c1C1CCCC(=O)N1Cc1ccc2ccccc2n1` (stereo not drawn) [Example 4a, 6-(2,6-dimethoxyphenyl)-1-(quinolin-2-ylmethyl)piperidin-2-one]: 7.80; `COc1cccc(OC)c1C1CCCC(=O)N1Cc1ccc2ccccc2n1` (stereo not drawn) [Example 4b, 6-(2,6-dimethoxyphenyl)-1-(quinolin-2-ylmethyl)piperidin-2-one]: 5.85.
For the compound `COc1cccc(OC)c1C1CCCC(=O)N1Cc1cnc(OC(F)F)c(C2CC2)c1` (stereo not drawn) [Example 70, 1-((5-cyclopropyl-6-(difluoromethoxy)pyridin-3-yl)methyl)-6-(2,6-dimethoxyphenyl)piperidin-2-one], the pIC50 at human orexin-1 receptor (compound incubation 120 min) is 5.75.
For `CCOc1cccc(OCC)c1C1CCCC(=O)N1Cc1ccc(OC(F)(F)F)cc1` (stereo not drawn) [Example 231, 6-(2,6-diethoxyphenyl)-1-(4-(trifluoromethoxy)benzyl)piperidin-2-one], the pIC50 on human orexin-1 receptor (setting [1]) was 6.26.
